We go through 27 compounds from US9085555B2, “Complement pathway modulators and uses thereof” (priority 2011, dated 2015).

Like-named read-outs stand apart in the source and are kept apart here.

This test has as its target Factor D (Homo sapiens (Human), UniProt P00746). Nature of the test: biochemical. The test is classed as biochemical.

Factor D, sequence (P00746 26-253): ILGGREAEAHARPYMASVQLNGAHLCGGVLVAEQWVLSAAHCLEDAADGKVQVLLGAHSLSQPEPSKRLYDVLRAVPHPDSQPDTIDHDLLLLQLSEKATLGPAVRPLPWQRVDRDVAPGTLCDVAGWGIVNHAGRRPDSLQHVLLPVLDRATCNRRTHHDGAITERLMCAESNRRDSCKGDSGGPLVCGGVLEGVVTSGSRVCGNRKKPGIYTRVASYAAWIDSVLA

In general, IC50 refers to the concentration needed to halve the response being measured. For the compound `COC[C@@H](NC(=O)[C@@H]1C[C@H]2C[C@H]2N1C(=O)Cc1cn(C(N)=O)c2ccccc12)c1cccc(Cl)c1F` [Example 464, 3-(2-{(1R,3S,5R)-3-[(S)-1-(3-Chloro-2-fluoro-phenyl)-2-methoxy-ethylcarbamoyl]-2-aza-bicyclo[3.1.0]hex-2-yl}-2-oxo-ethyl)-indole-1-carboxylic acid amide], the IC50 (read-out: IC50) was 254 nM.

For the compound `NC(=O)n1cc(CC(=O)N2C[C@H](F)[C@@H](N)[C@H]2C(=O)NCc2cccc(Cl)c2F)c2ccccc21` [Example 466, 3-{2-[(2S,3S,4S)-3-Amino-2-(3-chloro-2-fluoro-benzylcarbamoyl)-4-fluoro-pyrrolidin-1-yl]-2-oxo-ethyl}-indole-1-carboxylic acid amide], the IC50 (read-out: IC50) was found to be 43 nM.

Take `NC(=O)n1cc(CC(=O)N2[C@H](C(=O)NCc3cccc(Cl)c3F)C[C@@]3(CO)C[C@@H]23)c2ccccc21` [Example 467, 3-{2-[(1R,3S,5S)-3-(3-Chloro-2-fluoro-benzylcarbamoyl)-5-hydroxymethyl-2-aza-bicyclo[3.1.0]hex-2-yl]-2-oxo-ethyl}-indole-1-carboxylic acid amide]: where the note is “read-out: IC50”, the IC50 stood at 47 nM.

On to `NC(=O)n1cc(CC(=O)N2C[C@@H](N)C[C@H]2C(=O)NCc2cccc(Cl)c2F)c2ccccc21` [Example 468, 3-{2-[(2S,4S)-4-Amino-2-(3-chloro-2-fluoro-benzylcarbamoyl)-pyrrolidin-1-yl]-2-oxo-ethyl}-indole-1-carboxylic acid amide], for which the IC50 came to 350 nM.

Consider `NC(=O)n1cc(CC(=O)N2NCCC2C(=O)NCc2cccc(Cl)c2)c2ccccc21` (stereo not drawn) [Example 469, 3-{2-[5-(3-Chloro-benzylcarbamoyl)-pyrazolidin-1-yl]-2-oxo-ethyl}-indole-1-carboxylic acid amide], for which the IC50 (read-out: IC50) amounted to 3350 nM.

For the compound `NC[C@@]1(F)C[C@@H](C(=O)NCc2cccc(Cl)c2F)N(C(=O)Cc2cn(C(N)=O)c3ccccc23)C1` [Example 470, 3-{2-[(2S,4S)-4-Aminomethyl-2-(3-chloro-2-fluoro-benzylcarbamoyl)-4-fluoro-pyrrolidin-1-yl]-2-oxo-ethyl}-indole-1-carboxylic acid amide], the IC50 (read-out: IC50) was 250 nM.

For the compound `NC[C@@]1(F)C[C@@H](C(=O)NCc2c(F)ccc(Cl)c2F)N(C(=O)Cc2cn(C(N)=O)c3ccccc23)C1` [Example 471, 3-{2-[(2S,4S)-4-Aminomethyl-2-(3-chloro-2,6-difluoro-benzylcarbamoyl)-4-fluoro-pyrrolidin-1-yl]-2-oxo-ethyl}-indole-1-carboxylic acid amide], the 50% inhibitory concentration (IC50) (read-out: IC50) turned out to be 89 nM.

As for `CN(C)CCOc1ccc2c(c1)c(CC(=O)N1[C@@H]3C[C@@H]3C[C@H]1C(=O)NCc1cccc(Cl)c1F)cn2C(N)=O` [Example 472, 3-{2-[(1R,3S,5R)-3-(3-Chloro-2-fluoro-benzylcarbamoyl)-2-aza-bicyclo[3.1.0]hex-2-yl]-2-oxo-ethyl}-5-(2-dimethylamino-ethoxy)-indole-1-carboxylic acid amide], where the note is “read-out: IC50”, the IC50 is 255 nM.

As to `NC(=O)n1cc(CC(=O)N2[C@@H]3C[C@@H]3C[C@H]2C(=O)NCc2cccc(Cl)c2F)c2ccc(CC(=O)O)cc21` [Example 473, (1-Carbamoyl-3-{2-[(1R,3S,5R)-3-(3-chloro-2-fluoro-benzylcarbamoyl)-2-aza-bicyclo[3.1.0]hex-2-yl]-2-oxo-ethyl}-1H-indol-6-yl)-acetic acid], the IC50 (read-out: IC50) was determined as 463 nM.

`NC(=O)n1cc(CC(=O)N2[C@@H]3C[C@@H]3C[C@H]2C(=O)NCc2cccc(Cl)c2F)c2ccc(CCO)cc21` [Example 474, 3-{2-[(1R,3S,5R)-3-(3-Chloro-2-fluoro-benzylcarbamoyl)-2-aza-bicyclo[3.1.0]hex-2-yl]-2-oxo-ethyl}-6-(2-hydroxy-ethyl)-indole-1-carboxylic acid amide]: the concentration for half-maximal inhibition (IC50) (read-out: IC50) was 95 nM.

As to `NC(=O)c1cn(CC(=O)N2[C@@H]3C[C@@H]3C[C@H]2C(=O)NCc2cccc(Cl)c2F)c2ccccc12` [Example 475, 1-{2-[(1R,3S,5R)-3-(3-Chloro-2-fluoro-benzylcarbamoyl)-2-aza-bicyclo[3.1.0]hex-2-yl]-2-oxo-ethyl}-1H-indole-3-carboxylic acid amide], under “read-out: IC50”, the IC50 came to 350 nM.

Take `NC(=O)c1cn(CC(=O)N2C[C@H](F)C[C@H]2C(=O)NCc2cccc(Cl)c2F)c2ccccc12` [Example 476, 1-{2-[(2S,4R)-2-(3-Chloro-2-fluoro-benzylcarbamoyl)-4-fluoro-pyrrolidin-1-yl]-2-oxo-ethyl}-1H-indole-3-carboxylic acid amide]: the IC50 (read-out: IC50) amounted to 33 nM.

Consider `COc1cccc2c(C(N)=O)cn(CC(=O)N3C[C@H](F)C[C@H]3C(=O)NCc3cccc(Cl)c3F)c12` [Example 477, 1-{2-[(2S,4R)-2-(3-Chloro-2-fluoro-benzylcarbamoyl)-4-fluoro-pyrrolidin-1-yl]-2-oxo-ethyl}-7-methoxy-1H-indole-3-carboxylic acid amide], for which, for the setting “read-out: IC50”, the concentration for half-maximal inhibition (IC50) was found to be 628 nM.

As to `CC(=O)c1cn(CC(=O)N2CCCC[C@H]2C(=O)NCc2cccc(Cl)c2F)c2ccccc12` [Example 478, (S)-1-[2-(3-Acetyl-indol-1-yl)-acetyl]-piperidine-2-carboxylic acid 3-chloro-2-fluoro-benzylamide], the IC50 (read-out: IC50) was found to be 258 nM.

Consider `NC(=O)c1cn(CC(=O)N2C[C@H](F)C[C@H]2C(=O)NCc2cccc(Cl)c2F)c2cc(Br)c(F)cc12` [Example 479, 6-Bromo-1-{2-[(2S,4R)-2-(3-chloro-2-fluoro-benzylcarbamoyl)-4-fluoro-pyrrolidin-1-yl]-2-oxo-ethyl}-5-fluoro-1H-indole-3-carboxylic acid amide], for which, under “read-out: IC50”, the IC50 came out at 89 nM.

Regarding `NC(=O)c1cn(CC(=O)N2C[C@H](F)C[C@H]2C(=O)NCc2cccc(Br)c2F)c2ccccc12` [Example 481, 1-{2-[(2S,4R)-2-(3-Bromo-2-fluoro-benzylcarbamoyl)-4-fluoro-pyrrolidin-1-yl]-2-oxo-ethyl}-1H-indole-3-carboxylic acid amide], the IC50 (read-out: IC50) came to 22 nM.

For `CC(=O)c1cn(CC(=O)N2C[C@](C)(F)C[C@H]2C(=O)NCc2cccc(Cl)c2F)c2cnccc12` [Example 482, (2S,4R)-1-[2-(3-Acetyl-pyrrolo[2,3-c]pyridin-1-yl)-acetyl]-4-fluoro-4-methyl-pyrrolidine-2-carboxylic acid 3-chloro-2-fluoro-benzylamide], the IC50 (read-out: IC50) came out at 188 nM.

As to `CC(=O)c1cn(CC(=O)N2[C@@H]3C[C@@H]3C[C@H]2C(=O)NCc2cccc(Cl)c2F)c2ncccc12` [Example 483, (1R,3S,5R)-2-[2-(3-Acetyl-pyrrolo[2,3-b]pyridin-1-yl)-acetyl]-2-aza-bicyclo[3.1.0]hexane-3-carboxylic acid 3-chloro-2-fluoro-benzylamide], the IC50 (read-out: IC50) came out at 60 nM.

In the case of `CC(=O)c1cn(CC(=O)N2[C@@H]3C[C@@H]3C[C@H]2C(=O)NCc2ccc(Cl)s2)c2ncccc12` [Example 484, (1R,3S,5R)-2-[2-(3-Acetyl-pyrrolo[2,3-b]pyridin-1-yl)-acetyl]-2-aza-bicyclo[3.1.0]hexane-3-carboxylic acid (5-chloro-thiophen-2-ylmethyl)-amide], the IC50 (read-out: IC50) was 358 nM.

As to `COc1ccc2c(c1)c(C(C)=O)cn2CC(=O)N1C[C@H](F)[C@@H](OC)[C@H]1C(=O)NCc1cccc(Cl)c1F` [Example 485, (2S,3S,4S)-1-[2-(3-Acetyl-5-methoxy-indol-1-yl)-acetyl]-4-fluoro-3-methoxy-pyrrolidine-2-carboxylic acid 3-chloro-2-fluoro-benzylamide], the IC50 (read-out: IC50) came to 15 nM.

For `NC(=O)c1cn(CC(=O)N2C[C@H](F)C[C@H]2C(=O)Nc2cccc(Cl)c2F)c2ccccc12` [Example 486, 1-{2-[(2S,4R)-2-(3-Chloro-2-fluoro-phenylcarbamoyl)-4-fluoro-pyrrolidin-1-yl]-2-oxo-ethyl}-1H-indole-3-carboxylic acid amide], the IC50 (read-out: IC50) is 2450 nM.

As to `COc1ccc2c(C(C)=O)cn(CC(=O)N3C[C@H](F)[C@@H](OC)[C@H]3C(=O)NCc3cccc(Cl)c3F)c2c1` [Example 487, (2S,3S,4S)-1-[2-(3-Acetyl-6-methoxy-indol-1-yl)-acetyl]-4-fluoro-3-methoxy-pyrrolidine-2-carboxylic acid 3-chloro-2-fluoro-benzylamide], the IC50 (read-out: IC50) was 13 nM.

As for `NC(=O)c1cn(CC(=O)N2C[C@H](F)C[C@H]2C(=O)NCc2cccc(Cl)c2F)c2ccc(Cl)cc12` [Example 488, 5-Chloro-1-{2-[(2S,4R)-2-(3-chloro-2-fluoro-benzylcarbamoyl)-4-fluoro-pyrrolidin-1-yl]-2-oxo-ethyl}-1H-indole-3-carboxylic acid amide], where the note is “read-out: IC50”, the IC50 turned out to be 250 nM.

Turning to `NC(=O)c1cn(CC(=O)N2C[C@H](F)C[C@H]2C(=O)NCc2cccc(Cl)c2F)c2c(Cl)cccc12` [Example 489, 7-Chloro-1-{2-[(2S,4R)-2-(3-chloro-2-fluoro-benzylcarbamoyl)-4-fluoro-pyrrolidin-1-yl]-2-oxo-ethyl}-1H-indole-3-carboxylic acid amide], under “read-out: IC50”, the IC50 was 124 nM.

For the compound `COC[C@@]12C[C@@H](C(=O)NCc3cccc(Cl)c3F)N(C(=O)Cn3cc(C(C)=O)c4cccnc43)[C@@H]1C2` [Example 490, (1R,3S,5S)-2-[2-(3-Acetyl-pyrrolo[2,3-b]pyridin-1-yl)-acetyl]-5-methoxymethyl-2-aza-bicyclo[3.1.0]hexane-3-carboxylic acid 3-chloro-2-fluoro-benzylamide], the IC50 (read-out: IC50) came out at 214 nM.

On to `NC(=O)c1cn(CC(=O)N2C[C@H](F)C[C@H]2C(=O)NCc2cccc(Cl)c2F)c2cc(Cl)ccc12` [Example 491, 6-Chloro-1-{2-[(2S,4R)-2-(3-chloro-2-fluoro-benzyl-carbamoyl)-4-fluoro-pyrrolidin-1-yl]-2-oxo-ethyl}-1H-indole-3-carboxylic acid amide], for which the IC50 (read-out: IC50) turned out to be 28 nM.

For the compound `NC(=O)c1cn(CC(=O)N2C[C@H](F)C[C@H]2C(=O)NCc2cccc(Cl)c2F)c2cc(F)c(F)cc12` [Example 492, 1-{2-[(2S,4R)-2-(3-Chloro-2-fluoro-benzylcarbamoyl)-4-fluoro-pyrrolidin-1-yl]-2-oxo-ethyl}-5,6-difluoro-1H-indole-3-carboxylic acid amide], the IC50 (read-out: IC50) is 237 nM.
